# According to US20150190404A1, “TREATING SEIZURES USING ICE INHIBITORS” (Vertex Pharmaceuticals Incorporated, priority 2004, published 2015):
# Where “and” joins values, the source holds several entries; their conditions need not be identical. Identical values can stand only once. Entries after “also recorded” stand apart in the source; their conditions may differ.
# Columns and labels:
# [1] = tested on: kainic acid-induced seizures; assay: Kainic acid-induced EEG seizures, compound given intracerebroventricularly (Example 1); type: in vivo, male adult Sprague-Dawley rats; details: individual rats, 25 μg/4 μl icv
# Method: An experimental model of seizures in male adult Sprague-Dawley rats was induced by unilateral microinjection of kainic acid (40 ng in 0.5 μl) in the dorsal hippocampus of freely-moving rats using chronically-implanted cannulae and electrodes. Briefly, animals were deeply anesthetized using Equithesin (1% […] and 4% chloral hydrate; 3 ml/kg, i.p.). Bipolar nichrome wire insulated electrodes (60 μm) were implanted bilaterally into the dentate gyrus of the dorsal hippocampus (septal pole), and a guide cannula (22 gauge) was unilaterally positioned on top of the dura and glued to one of the depth electrodes for the intrahippocampal injection of kainic acid. The coordinates from bregma for implantation of the hippocampal electrodes were (in mm: nose bar -2.5, AP -3.5, L ±2.4 and 3 below dura mater). An additional guide cannula was unilaterally positioned on top of the dura mater for intracerebroventricular injection of compounds (in mm, nose bar -2.5; AP -1; L +1.5). A ground lead was positioned over the nasal sinus and two screw electrodes were placed bilaterally over the parietal cortex. The electrodes were connected to a multipin socket (March Electronics, NY) and, together with the injection cannula, were secured to the skull by acrylic dental cement.
# [2] = tested on: kainic acid-induced seizures; assay: Kainic acid-induced EEG seizures, compound 1 given intraperitoneally (Example 2); type: in vivo, rats
# Method: An experimental model of seizures in rats was induced by unilateral microinjection of kainic acid (40 ng in 0.5 μL) in the dorsal hippocampus of freely-moving rats using chronically-implanted cannulae. […] EEG seizures were recorded using chronically-implanted hippocampal electrodes. […] See, Example 4, where a higher dose of compound 2 produced statistically significant effects.
# IL-1β = assay: Western blot of IL-1β in hippocampal homogenates after kainate seizures; type: in vivo, rats; details: 25 μg/4 μL icv 45 and 10 min before kainic acid 40 ng, 90 min after seizures
# Source text: See Example 1 and Example 6.
# seizures = assay: Rodent seizure model, general statements on anti-convulsant activity; details: in vivo
# Source text: The examples provided herein involve an rodent seizure model that is recognized as a good model of human epilepsy and convulsions disorders.
# rheumatoid arthritis = details: Pavelka et al. 2002, 285 patient PHII trial; cited from earlier work
# [3] = tested on: kainic acid-induced seizures; assay: Effect of ibuprofen on kainic acid-induced EEG seizures (Example 5); type: in vivo, Rats; details: for Status Epilepticus (time in status epilepticus) / Onset / No. of Seizures / Time in Seizures: 50 mg/kg
# Method: EEG seizures were induced in adult male Sprague-Dawley rats by intrahippocampal injection of 40 ng kainic acid (KA) using a chronically-implanted cannula. EEG seizures were recorded using chronically-implanted hippocampal electrodes. Ictal and interictal epileptic activity was quantified quantified by EEG analysis based on the following parameters: 1) the time to onset of the first ictal episode, 2) the number of ictal episodes during the 3 hours of recording, and 3) the time spent in ictal activity reckoned by adding together the duration of each ictal event. Compound 2 or its vehicle were injected intraperitoneally for 3 consecutive days (50-200 mg/kg). The 4th day, rats received compound 2, 45 and 10 min before the intrahippocampal injection of 40 ng in 0.5 μl kainic acid.
# The effect of ibuprofen on seizures was also examined using the methods described in Example 4. Rats received ibuprofen (50 mg/kg, i.p.) 60 min. before unilateral intrahippocampal injection of […] in 0.5 μl kainic acid. Controls (vehicle) received saline *p<0.05 vs. vehicle by Student's t-test. Seizures were analyzed and quantified by EEG. Status epilepticus represents continuous seizure activity lasting more than 30 min. consecutively.
# [4] = individual rats, 30 mg/kg intraperitoneally, 45 and 10 min before 40 ng kainic acid, 30 mg/kg
# [5] = individual rats, i.p. 60 min. before kainic acid
smiles,measurement,setting,value
CCO[C@@H]1OC(=O)C[C@@H]1NC(=O)[C@@H]1CCCN2C(=O)CC[C@H](NC(=O)c3nccc4ccccc34)C(=O)N12 [Compound 1],Time in ictal activity,[1]; 45 and 10 min before 40 ng kainic acid,36.0 min (2×) and 30.0 min and 42.0 min (2×) and 34.0 min and 41.0 min
same,ONSET (time to onset of the first ictal episode),[1]; 45 and 10 min before 40 ng kainic acid in left hippocampus,15.0 min and 20.0 min and 14.0 min (2×) and 18.0 min and 13.6 min and 9.0 min and 12.0 min
same,No. of ictal episodes,"[1]; 45 and 10 min before 40 ng kainic acid, 3 hours of recording",28 and 29 and 30 (3×) and 37 and 31 and 33
same,reduction of the total time spent in ictal activity,"[2]; 30 mg/kg intraperitoneally, vs vehicle, did not reach statistical significance",−30%
same,No. of ictal episodes,"[2]; Mean ± SE, 30 mg/kg intraperitoneally, vehicle 20.8 ± 2.5",20.5 ± 2.3
same,Time in ictal activity,"[2]; Mean ± SE, 30 mg/kg intraperitoneally, vehicle 36.6 ± 6.9",25.6 ± 2.8 min
same,ONSET (time to onset of the first ictal episode),[2]; [4],10.5 min and 12 min and 14 min and 9 min (2×) and 23 min and 13 min and 11 min
same,Time in ictal activity,[2]; [4],9 min and 32 min and 27 min and 20 min and 34 min and 25 min and 30 min and 28 min
same,No. of ictal episodes,"[2]; individual rats, 30 mg/kg intraperitoneally, 45 and 10 min before 40 ng kainic acid, 3 hours of recording, 30 mg/kg",8 and 23 (2×) and 29 and 17 and 25 (2×) and 16
same,seizure inhibition / anti-convulsant activity,[2]; intraperitoneal (peripheral) route,inhibit seizures; also recorded: have anti-convulsant activity when administered peripherally
same,mature active 17 kD IL-1β in hippocampus,IL-1β,blocked the seizure-induced production; also recorded: reduced the formation mature active 17 kD IL-1β
same,anti-convulsant activity in the rodent seizure model,seizures,as effective as high doses of either phenytoin or carbamazepine
same,anti-inflammatory activity in rheumatoid arthritis patients,rheumatoid arthritis,anti-inflammatory activity
CC(C)Cc1ccc(C(C)C(=O)O)cc1 (stereo not shown) [Ibuprofen],Status Epilepticus (time in status epilepticus),"[3]; Mean ± SE of (5) rats, i.p., vehicle —",74.4 ± 2.6
same,Status Epilepticus (time in status epilepticus),"[3]; Mean ± SE of (5) rats, i.p., vehicle —, listed as ibuprofen",increased the time in status epilepticus
same,Onset,"[3]; Mean ± SE, i.p., vehicle 13.2 ± 2.1",13.0 ± 1.7 min
same,No. of Seizures,"[3]; Mean ± SE, i.p., vehicle 16.6 ± 1.0",11.7 ± 1.0
same,Time in Seizures,"[3]; Mean ± SE, i.p., vehicle 21.1 ± 1.1",10.8 ± 0.6 min
same,Onset,"[3]; individual rats, i.p. 60 min. before intrahippocampal 40 μg in 0.5 μl kainic acid",14.4 min and 7.9 min and 11.0 min and 12.3 min and 13.3 min and 21.4 min and 10.0 min
same,No. of Seizures,[3]; [5],13 (2×) and 10 (2×) and 12 and 16 and 8
same,Time in Seizures,[3]; [5],13.0 min and 8.4 min and 11.0 min and 12.5 min and 11.2 min and 9.8 min and 9.4 min
same,Status Epilepticus (time in status epilepticus),"[3]; individual rats, i.p., continuous seizure activity lasting more than 30 min., all vehicle rats —",75 and 66.6 and 80 (2×) and 70
same,seizure activity compared to vehicle,[3]; intraperitoneal route,increased the seizure activity compared to vehicle
NC(=O)N1c2ccccc2C=Cc2ccccc21 [carbamazepine],anti-convulsant activity in the rodent seizure model,seizures,exhibit anti-convulsant activity
O=C1NC(=O)C(c2ccccc2)(c2ccccc2)N1 [phenytoin],anti-convulsant activity in the rodent seizure model,seizures,exhibit anti-convulsant activity
